Patent publication US5155115A, “Thienopyridine derivatives” (Kyowa Hakko Kogyo Co., Ltd., priority 1991, dated 1992)

How the values were obtained:
5-HT3 receptor = 5-HT3 receptor binding test ([^3 H] quipazine, NG108-15 cell membrane fraction); set-up: species or system rat; conditions: 2 nM [^3 H] quipazine, 37° C., 60 minutes, pH 7.5; for Inhibition Rate (%) (concentration) 10^-7 M: 10^-7 M test compound; for Inhibition Rate (%) (concentration) 10^-8 M: 10^-8 M test compound
Description: 5-HT3 receptor binding test
Using rat neutroblastoma-glicoma NG108-15 cell membrane fraction, the binding activities of the test compounds to 5-HT3 receptor were examined.
A membrane fraction of NG108-15 cells was prepared according to the method of Neijt et al. [Naunyn-Schmiedeberg's Arch. Pharmacol., 337, 493 (1988)].
The receptor binding test was performed using [^3 H] quipazine [J. Neurochem., 52, 1787 (1989)], a high affinity ligand to 5-HT3 receptor.
A membrane fraction obtained from 4×10^5 NG108-15 cells was suspended in 1 ml of 20 mM Tris-hydrochloride buffer (pH 7.5) (hereinafterreferred to as Buffer) containing 154 mM sodium chloride. Then, 2 nM [^3 H] quipazine (2519.7 GBq/mmol; NEN CO.) and various concentrations of the test compound were added to the suspension followed by incubating at 37° C. for 60 minutes. 4 ml of ice-cold Buffer was added to terminate the reaction and then the mixture was filtered through GF/C glass fiber filter (Whatmann Co., Ltd.). The filter was washed 5 times with 2 ml of ice-cold Buffer, and put in a scintillation vial containing 8 ml of Scintisol EX-H (Wako Pure Chemicals, Inc.). Radioactivity on the filter was counted in a liquid scintillation counter (TRI-CARB 2200CA; Packard Co., Ltd.).
An inhibition of the [^3 H] quipazine binding by the test compound was estimated according to the equation; [formula]
"Total binding" is [^3 H] quipazine-binding in the absence of test compound and "non-specific binding" is [^3 H] quipazine-binding in the presence of 10 μM MDL7222 5-HT3 antagonist [Naunyn-Schmiedeberg's Arch. Pharmacol., 326, 36 (1984)].

dd-Y-strain male mice = test: Acute Toxicity (minimum lethal dose); format: in vivo; conditions: mortality for 7 days
Description: A test compound was intraperitoneally and orally administered to dd-Y-strain male mice weighing 20 to 25 g. The minimum lethal dose (MLD) was determined by observing the mortality for 7 days after the administration.

[1] = tested on: Cisplatin-induced Vomiting; test: Activity Against Cisplatin-induced Vomiting; format: in vivo, Suncus murinus; conditions: 1.0 mg/kg i.p., 30 minutes before cisplatin 40 mg/kg i.p., n = 10
Description: Activity Against Cisplatin-induced Vomiting
In one group, 5 to 10 female and male Suncus murinus animals weighing 23 to 68 g were used. According to the method of Matsuki et al. [Japan J. Pharmacol., 48, 303 (1988)], each animal was put into a separate metal net cage (width 15 cm ×length 21 cm ×height 15 cm). One hour after, a test compound or physiological saline (control) was intraperitoneally (i.p.) administered in a dose of 10 μl/g of body weight. Further 30 minutes after administration of the test compound or physiological saline (control), 40 mg/kg of cisplatin was intraperitoneally administered. Taking no account of vomiting caused for 5 minytes after administration of cisplatin, a time period (latency) for the first vomiting and the number of frequencies (episodes) of vomiting caused for the period of 5 to 120 minutes after administration were determined. The latency and the number of frequencies in the test compound administered group were compared with those in the control group. The test of significance was performed by Student's t-test.

Row | Compound | Inhibition Rate (%) (concentration) 10^-7 M (5-HT3 receptor) | Inhibition Rate (%) (concentration) 10^-8 M (5-HT3 receptor) | MLD (mg/kg) i.p. (dd-Y-strain male mice) [mg/kg] | MLD (mg/kg) p.o. (dd-Y-strain male mice) [mg/kg] | Number of Vomiting episodes (mean ± S.E.M.) ([1]; 5 to 120 minutes after cisplatin, control 29.2 ± 4.5 (n = 5)) | Latency (min.) (mean ± S.E.M.) ([1]; time to first vomiting, control 28.6 ± 6.3 (n = 5)) [min]
1 | CCCCn1c(=O)c(C(=O)N[C@H]2C[C@H]3CC[C@@H](C2)N3C)c(O)c2ccsc21 [Compound 5, Endo-N-(8-methyl-8-azabicyclo[3.2.1]oct-3-yl)-7-(n-butyl)-6,7-dihydro-4-hydroxy-6-oxothieno[2,3-b]pyridine-5-carboxamide] | 105 | 100 | > 100 | > 300 | – | –
2 | CN1[C@@H]2CC[C@H]1C[C@@H](NC(=O)c1c(O)c3ccsc3[nH]c1=O)C2 [Compound 7, Endo-N-(8-methyl-8-azabicyclo[3.2.1]oct-3-yl)-6,7-dihydro-4-hydroxy-6-oxothieno[2,3-b]pyridine-5-carboxamide] | 71 | 23 | – | – | – | –
3 | CCCCn1c(=O)c(C(=O)O[C@H]2C[C@H]3CC[C@@H](C2)N3C)c(O)c2sccc21 [Compound 4, Endo-8-methyl-8-azabicyclo[3.2.1]oct-3-yl 4-(n-butyl)-4,5-dihydro-7-hydroxy-5-oxothieno[3,2-b]pyridine-6-carboxylate] | – | – | > 50 | > 100 | – | –
4 | CN1[C@@H]2CCC[C@H]1C[C@@H](NC(=O)c1c(O)c3ccsc3[nH]c1=O)C2 [Compound 9, Endo-N-(9-methyl-9-azabicyclo[3.3.1]non-3-yl)-6,7-dihydro-4-hydroxy-6-oxothieno[2,3-b]pyridine-5-carboxamide] | 69 | 12 | > 50 | > 300 | – | –
5 | CCCCn1c(=O)c(C(=O)N[C@H]2C[C@H]3CC[C@@H](C2)N3C)c(O)c2sccc21 [Compound 3, Endo-N-(8-methyl-8-azabicyclo[3.2.1]oct-3-yl)-4-(n-butyl)-4,5-dihydro-7-hydroxy-5-oxothieno[3,2-b]pyridine-6-carboxamide] | 101 | 98 | – | > 200 | – | –
6 | CCCCn1c(=O)c(C(=O)O[C@H]2C[C@H]3CC[C@@H](C2)N3C)c(O)c2ccsc21 [Compound 6, Endo-8-methyl-8-azabicyclo[3.2.1]oct-3-yl 7-(n-butyl)-6,7-dihydro-4-hydroxy-6-oxothieno[2,3-b]pyridine-5-carboxylate] | – | – | > 100 | > 100 | – | –
7 | CN1[C@@H]2CC[C@H]1C[C@@H](NC(=O)c1c(O)c3sccc3[nH]c1=O)C2 [Compound 1, Endo-N-(8-methyl-8-azabicyclo[3.2.1]oct-3-yl)-4,5-dihydro-7-hydroxy-5-oxothieno[3,2-b]pyridine-6-carboxamide] | 94 | 44 | > 100 | > 300 | 9.3 ± 2.2 | 66.0 ± 10.4
8 | CN1[C@@H]2CC[C@H]1C[C@@H](OC(=O)c1c(O)c3ccsc3[nH]c1=O)C2 [Compound 8, Endo-8-methyl-8-azabicyclo[3.2.1]oct-3-yl 6,7-dihydro-4-hydroxy-6-oxothieno[2,3-b]pyridine-5-carboxylate] | – | – | > 100 | > 300 | – | –
